{"source": "patent US8329669B2", "about": "“Composition and method for treatment of tumors” (Sanofi, priority 2006, dated 2012)", "molecules": {"B1": {"name": "FasL: Fas Ligand, TNFα family member which signals through Death Receptors (protein, UniProt P48023 130-281, looked up)", "Tumor necrosis factor ligand …": "QIGHPSPPPEKKELRKVAHLTGKSNSRSMPLEWEDTYGIVLLSGVKYKKGGLVINETGLYFVYSKVYFRGQSCNNLPLSHKVYMRNSKYPQDLVMMEGKMMSYCTTGQMWARSSYLGAVFNLTSADHLYVNVSELSLVNFEESQTFFGLYKL"}}, "assay_type_in_all_cases": "cell-based", "key": {"HCT116 cells [1]": {"test_system": "HCT116 cells", "assay": "Annexin V apoptosis assay (FACS) after TRAIL treatment", "conditions": "50 ng/ml TRAIL", "experimental": "To further characterize the ability of Core 1 to protect against TRAIL-induced apoptosis, the pEYK vector containing the partial cDNA of UQCRC1 isolated from the screen was used to directly infect HCT116 cells. Cells expressing dominant-negative FADD (dnFADD), which inhibits the signal from the TRAIL receptors, was used as a control. Cells were treated for 48 hours with 0, 10 or 50 ng/mL of TRAIL and assayed for Annexin V, an early marker of apoptosis [FIG. 2A]. Expression of dnFADD inhibited TRAIL-induced apoptosis, with 78% of cells Annexin V negative or non-apoptotic at 50 ng/ml TRAIL.\nTo confirm that the protection observed from the partial Core 1 protein is indicative of its function, the full length human Core 1 protein was cloned into the pLenti-vector (containing a HA-tag) and used to infect HCT116 to produce a stable cell line expressing Core 1. A control cell line was prepared similarly to express Yellow Fluorescent Protein (YFP). To confirm the protein expression of full length Core 1, cells were homogenized to prepare a mitochondrial and cytoplasmic lysate and western blotted with antibodies to Core 1 [FIG. 2C]. The endogenous Core 1 is detected in the mitochondrial fraction of both YFP and Core 1 expressing cells. Exogenously expressed Core 1 is HA-tagged and is detected as a higher migrating band in the mitochondrial fraction, as well as the cytoplasmic fraction. […] Thus, Core 1 is expressed in these HCT116 stable cell lines. To determine if full length Core 1 also protects against TRAIL-induced apoptosis, cells were treated with TRAIL and assayed for apoptosis by FACS analysis for cells that were Annexin V positive or negative."}, "HCT116 cells [2]": {"test_system": "HCT116 cells", "assay": "JC-1 mitochondrial membrane potential assay (FACS)", "experimental": "As Core 1 is a subunit of the mitochondrial respiratory Complex III, work was conducted to determine whether expression of Core 1 protects against mitochondrial depolarization, a critical step in mitochondrial mediated apoptosis. Changes in mitochondrial membrane potential during TRAIL treatment were studied using the JC-1 Assay Kit (Molecular Probes). JC-1 (5, 5′,6,6′,-tetrachloro-1,1′,3,3′-tetraethylbenzimidazolylcarbocyanine) is a cationic dye which has a diffuse green fluorescence in the cytoplasm. The accumulation of JC-1 in the mitochondria, which depends on intact, polarized mitochondria, results in the formation of red fluorescent aggregates. The ratio of green to red fluorescence was measured for the cells described in Example 2 above by Fluorescence-activated Cell Sorter (FACS) analysis. FACS is a method to sort cells based on specific cellular surface markers (e.g., red or green fluorescence). The above ratio is plotted as a percentage of polarized mitochondria."}, "HCT116 cells [3]": {"test_system": "HCT116 cells", "assay": "Western blot for caspase activation upon TRAIL stimulation", "conditions": "full length Core 1 vs YFP expressing HCT116; 200 ng/ml TRAIL, 24 hours", "experimental": "Cells stably expressing YFP or human full length Core 1 were treated for 24 hours with 200 ng/ml TRAIL, lysed, and western blotted with antibodies to several caspases. Caspase activation was detected by the cleavage of the full length pro-caspase to the smaller, active form. […] Thus, Core 1 expression inhibits the full activation of caspases 8, 9, and 3 upon TRAIL stimulation."}, "HCT116 cells [4]": {"test_system": "HCT116 cells", "assay": "Cytochrome c release into the cytoplasmic fraction (ELISA)", "conditions": "100 ng/ml TRAIL, 24 hours", "experimental": "HCT116 cells stably expressing YFP or human full length Core 1 were treated with 100 ng/ml TRAIL for 24 hours. Control cells stably expressing YFP or human full length Core 1 were not treated with TRAIL. The cells were then harvested. Media containing floating cells was first removed to new tubes. The remaining adherent cells were detached using a cell scraper in ice-cold PBS and added to the media containing floating cells. The cells were pelleted by centrifuging at 1000×g for 10 minutes at 4° C. and resuspended in an iso-osmotic buffer (0.3M sucrose, 10 mM Tris pH 7.5, 1 mM EDTA, EDTA-free protease tablet). After a five minute incubation on ice, the cells were lysed using dounce homogenizers until about 90% of the plasma membranes were lysed. This was done to isolate the cytoplasmic fraction. The extent of cell lysis was monitored by mixing 10 μl of lysate with trypan blue and viewed on a hemocytometer. […] The concentration of lysates was determined using either the BioRad DC protein assay (BioRad) or the BCA method (Pierce, Rockford, Ill.). To quantitatively detect cytochrome c levels, lysates were assayed for cytochrome c using a Function ELISA cytochrome c kit (Active Motif, Carlsbad, Calif.) [FIG. 3B]. In untreated cells, low baseline levels of cytochrome c were detected in the cytoplasm."}, "HCT116 cells [5]": {"test_system": "HCT116 cells", "assay": "Cell-Titer Blue viability of cells expressing YFP or full length Core 1 treated with apoptosis inducers", "experimental": "To determine whether Core 1 protected against apoptosis induced by TRAIL or through other pathways, cells were treated with several different apoptosis inducers and assayed for cell viability. Fas Ligand (FasL), also a TNFα family member which signals through Death Receptors, uses the same adaptor protein FADD to induce caspase activation and apoptosis. Cells stably expressing either yellow florescent protein (YFP) or human full length Core 1 were treated with 100 ng/ml of TRAIL or 16 ng/ml of FasL for 24 hours. Cell viability was assayed using the Cell-Titer Blue assay, where conversion of the indicator dye resazurin is used to measure the metabolic capacity of cells, an indicator of cell viability. […] Cells were then treated with two compounds which induce apoptosis through non-death receptor pathways. Camptothecin inhibits DNA topoisomerase 1, ultimately leading to DNA damage and death, while Taxotere is an inhibitor of microtubule depolymerization, which prevents cell division and leads to mitotic death."}}, "data": [{"molecule": "TRAIL: recombinant human TRAIL (BioMol), member of the TNF superfamily that induces apoptosis", "values": [{"measurement": "cells Annexin V negative", "setting": "HCT116 cells [1]; HCT116 expressing GFP, 48 hours", "result": 2, "unit": "%"}, {"measurement": "cells Annexin V negative or non-apoptotic", "setting": "HCT116 cells [1]; HCT116 expressing dnFADD, 48 hours", "result": 78, "unit": "%"}, {"measurement": "cells Annexin V negative", "setting": "HCT116 cells [1]; HCT116 expressing partial Core 1, 48 hours", "result": 14.5, "unit": "%"}, {"measurement": "protection against TRAIL-induced apoptosis", "setting": "HCT116 cells [1]; full length Core 1 vs YFP expressing cells", "result": 2.5, "unit": "fold"}, {"measurement": "increase in protection from TRAIL induced apoptosis", "setting": "HCT116 cells [1]; partial Core 1 vs GFP expressing cells", "result": 7, "unit": "fold"}, {"measurement": "polarized mitochondria remaining", "setting": "HCT116 cells [2]; HCT116 expressing GFP, 50 ng/ml TRAIL", "result": 7, "unit": "%"}, {"measurement": "mitochondrial depolarization", "setting": "HCT116 cells [2]; HCT116 expressing dnFADD, all concentrations of TRAIL", "result": "completely protected"}, {"measurement": "polarized mitochondria", "setting": "HCT116 cells [2]; HCT116 expressing partial Core 1, 50 ng/ml TRAIL", "result": 38, "unit": "%"}, {"measurement": "protection from mitochondrial depolarization over GFP", "setting": "HCT116 cells [2]; partial Core 1 vs GFP expressing cells, 50 ng/ml TRAIL", "result": 5, "unit": "fold"}, {"measurement": "caspase 8 activation", "setting": "HCT116 cells [3]", "result": "less active caspase 8"}, {"measurement": "caspase 9 and caspase 3 activation", "setting": "HCT116 cells [3]", "result": "reduced activation"}, {"measurement": "increase in cytochrome c released into the cytoplasmic fraction", "setting": "HCT116 cells [4]; HCT116 expressing YFP, vs untreated", "result": 10, "unit": "fold"}, {"measurement": "cytochrome c released, relative to YFP cells", "setting": "HCT116 cells [4]; HCT116 expressing full length Core 1", "result": "only one-half as much"}]}, {"molecule": "CC[C@@]1(O)C(=O)OCc2c1cc1n(c2=O)Cc2cc3ccccc3nc2-1", "note": "[Camptothecin]", "values": [{"measurement": "difference in viability between cells expressing YFP or full length Core 1", "setting": "HCT116 cells [5]; 200 nM Camptothecin in dimethyl sulfoxide", "result": "No difference in viability"}]}, {"molecule": "CC(=O)O[C@@]12CO[C@@H]1C[C@H](O)[C@@]1(C)C(=O)[C@H](O)C3=C(C)[C@@H](OC(=O)[C@H](O)[C@@H](NC(=O)OC(C)(C)C)c4ccccc4)C[C@@](O)([C@@H](OC(=O)c4ccccc4)[C@H]21)C3(C)C", "note": "[Taxotere]", "values": [{"measurement": "difference in viability between cells expressing YFP or full length Core 1", "setting": "HCT116 cells [5]; 10 nM Taxotere in dimethyl sulfoxide", "result": "No difference in viability"}]}, {"molecule": "B1", "values": [{"measurement": "protection from FasL induced apoptosis by Core 1 expression", "setting": "HCT116 cells [5]; Core 1 vs YFP expressing cells, 16 ng/ml FasL, 24 hours", "result": "about a three-fold protection"}]}]}
